Measurements as given in patent US20140120083A1, “TREATMENT OF CANCERS USING PI3 KINASE ISOFORM MODULATORS” (INFINITY PHARMACEUTICALS, INC., priority 2012, published 2014).
Entries after “also recorded” stand apart in the source; their conditions may differ. Marks after values point to notes of the source that are not given here.

How the values were obtained:
central nervous system = test: Neurofunctional study (FOB, motor activity); details: male rats
Pharmacokinetics, monkey = type: in vivo, Cynomolgus monkeys
hematologic malignancies = test: Phase 1 study in advanced hematologic malignancies, clinical response
[1] = 13-week repeat-dose safety study, rat
[2] = Plasma protein binding, monkey; type: in vitro ADME; details: 100 μM (41700 ng/mL)
Text: (§1) […]. […] […].

[3] = Phase 1 study in advanced hematologic malignancies, safety
Pharmacokinetics, rat = type: in vivo, Sprague-Dawley rats
[4] = In vivo rat micronucleus assay
[5] = 13-week repeat-dose safety study, monkey
[6] = Tissue distribution of radiolabelled compound; type: in vivo; details: rat, radiolabelled Compound 292, majority of tissues
human P-glycoprotein = biological target: T1, human P-glycoprotein (Homo sapiens, UniProt P08183); test: Interaction with P-glycoprotein, Caco-2; type: in vitro ADME; details: Caco-2 cell monolayers
T1 construct: endogenous in cells; host or cells: Caco-2
T1 sequence (P08183 whole entry): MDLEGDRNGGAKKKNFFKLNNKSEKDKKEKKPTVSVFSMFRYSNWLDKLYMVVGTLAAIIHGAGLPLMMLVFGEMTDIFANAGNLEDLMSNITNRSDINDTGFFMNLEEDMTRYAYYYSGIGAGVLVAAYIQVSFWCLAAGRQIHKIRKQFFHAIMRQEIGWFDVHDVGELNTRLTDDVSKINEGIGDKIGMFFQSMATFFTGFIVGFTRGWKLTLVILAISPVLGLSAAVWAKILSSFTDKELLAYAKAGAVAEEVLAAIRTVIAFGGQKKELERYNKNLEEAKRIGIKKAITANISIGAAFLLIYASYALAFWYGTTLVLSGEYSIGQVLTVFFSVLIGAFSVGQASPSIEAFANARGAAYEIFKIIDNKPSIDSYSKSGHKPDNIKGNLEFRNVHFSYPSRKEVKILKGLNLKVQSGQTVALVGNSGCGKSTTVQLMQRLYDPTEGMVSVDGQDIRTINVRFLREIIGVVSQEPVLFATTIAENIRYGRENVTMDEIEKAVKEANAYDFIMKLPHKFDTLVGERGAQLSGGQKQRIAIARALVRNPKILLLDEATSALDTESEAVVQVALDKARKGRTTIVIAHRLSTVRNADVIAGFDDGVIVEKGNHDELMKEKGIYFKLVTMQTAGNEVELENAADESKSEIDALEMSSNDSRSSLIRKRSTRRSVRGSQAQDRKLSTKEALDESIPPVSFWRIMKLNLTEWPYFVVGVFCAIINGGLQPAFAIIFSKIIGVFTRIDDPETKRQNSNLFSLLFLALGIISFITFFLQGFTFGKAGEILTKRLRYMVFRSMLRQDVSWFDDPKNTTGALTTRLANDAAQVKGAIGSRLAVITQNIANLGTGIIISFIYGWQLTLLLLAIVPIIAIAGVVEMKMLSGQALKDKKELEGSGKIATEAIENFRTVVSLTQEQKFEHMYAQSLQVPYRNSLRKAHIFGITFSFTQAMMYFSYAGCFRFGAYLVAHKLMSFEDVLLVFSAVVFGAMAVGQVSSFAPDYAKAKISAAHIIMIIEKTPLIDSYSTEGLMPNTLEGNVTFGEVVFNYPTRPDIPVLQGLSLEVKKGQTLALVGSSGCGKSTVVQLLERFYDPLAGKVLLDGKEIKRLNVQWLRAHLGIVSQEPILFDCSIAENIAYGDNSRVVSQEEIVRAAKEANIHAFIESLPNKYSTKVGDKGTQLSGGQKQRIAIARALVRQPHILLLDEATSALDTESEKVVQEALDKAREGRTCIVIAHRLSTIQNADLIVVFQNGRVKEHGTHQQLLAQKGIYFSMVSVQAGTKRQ

respiratory system = test: Respiratory study (plethysmography); details: male rats, single oral dose up to 350 mg/kg
[7] = test system: hemodynamic and electrocardiographic parameters; test: Cardiovascular telemetry study; type: in vivo, cynomolgus monkey; details: male monkeys
Text: Four non-naive, male monkeys implanted with radiotelemetry transmitters were utilized during the conduct of this study.

[8] = Plasma protein binding, rat; type: in vitro ADME; details: 100 μM (41700 ng/mL)
Text: as §1

PI3K δ = PI3K δ (Homo sapiens, UniProt O00329); test: Clinical study in healthy subjects, basophil activation (CD63 on CCR3+ basophils, ex vivo anti-FcεR1); set-up: from tissue; host or cells: human whole blood (basophils)
Sequence of PI3K δ (O00329 whole entry): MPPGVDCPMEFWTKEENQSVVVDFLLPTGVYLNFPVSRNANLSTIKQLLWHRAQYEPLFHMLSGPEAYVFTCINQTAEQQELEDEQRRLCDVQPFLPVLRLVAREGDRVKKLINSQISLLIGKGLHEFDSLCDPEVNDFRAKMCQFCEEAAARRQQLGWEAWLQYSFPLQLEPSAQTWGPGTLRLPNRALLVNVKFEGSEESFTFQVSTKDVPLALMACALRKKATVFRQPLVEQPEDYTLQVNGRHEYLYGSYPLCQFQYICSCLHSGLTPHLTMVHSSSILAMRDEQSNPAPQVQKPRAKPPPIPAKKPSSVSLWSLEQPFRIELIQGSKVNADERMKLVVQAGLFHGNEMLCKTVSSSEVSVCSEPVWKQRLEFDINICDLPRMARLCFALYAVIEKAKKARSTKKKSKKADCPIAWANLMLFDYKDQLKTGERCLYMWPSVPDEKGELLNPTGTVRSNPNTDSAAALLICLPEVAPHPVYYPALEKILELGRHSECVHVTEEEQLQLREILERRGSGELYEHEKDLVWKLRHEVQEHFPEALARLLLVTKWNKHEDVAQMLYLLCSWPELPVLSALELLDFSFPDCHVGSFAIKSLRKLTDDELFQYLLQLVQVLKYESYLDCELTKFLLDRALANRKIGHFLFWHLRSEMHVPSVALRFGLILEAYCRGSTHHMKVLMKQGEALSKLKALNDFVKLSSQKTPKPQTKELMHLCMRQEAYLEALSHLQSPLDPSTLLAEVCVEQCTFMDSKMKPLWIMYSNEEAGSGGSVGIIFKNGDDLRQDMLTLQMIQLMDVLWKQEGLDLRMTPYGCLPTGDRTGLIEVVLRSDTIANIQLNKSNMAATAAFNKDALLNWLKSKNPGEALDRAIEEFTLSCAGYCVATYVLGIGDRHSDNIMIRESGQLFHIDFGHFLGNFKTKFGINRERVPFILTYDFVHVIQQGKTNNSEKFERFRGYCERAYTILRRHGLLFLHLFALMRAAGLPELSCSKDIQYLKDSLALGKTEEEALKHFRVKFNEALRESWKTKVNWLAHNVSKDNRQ
Sequence of PI3K δ (P27986 whole entry partner): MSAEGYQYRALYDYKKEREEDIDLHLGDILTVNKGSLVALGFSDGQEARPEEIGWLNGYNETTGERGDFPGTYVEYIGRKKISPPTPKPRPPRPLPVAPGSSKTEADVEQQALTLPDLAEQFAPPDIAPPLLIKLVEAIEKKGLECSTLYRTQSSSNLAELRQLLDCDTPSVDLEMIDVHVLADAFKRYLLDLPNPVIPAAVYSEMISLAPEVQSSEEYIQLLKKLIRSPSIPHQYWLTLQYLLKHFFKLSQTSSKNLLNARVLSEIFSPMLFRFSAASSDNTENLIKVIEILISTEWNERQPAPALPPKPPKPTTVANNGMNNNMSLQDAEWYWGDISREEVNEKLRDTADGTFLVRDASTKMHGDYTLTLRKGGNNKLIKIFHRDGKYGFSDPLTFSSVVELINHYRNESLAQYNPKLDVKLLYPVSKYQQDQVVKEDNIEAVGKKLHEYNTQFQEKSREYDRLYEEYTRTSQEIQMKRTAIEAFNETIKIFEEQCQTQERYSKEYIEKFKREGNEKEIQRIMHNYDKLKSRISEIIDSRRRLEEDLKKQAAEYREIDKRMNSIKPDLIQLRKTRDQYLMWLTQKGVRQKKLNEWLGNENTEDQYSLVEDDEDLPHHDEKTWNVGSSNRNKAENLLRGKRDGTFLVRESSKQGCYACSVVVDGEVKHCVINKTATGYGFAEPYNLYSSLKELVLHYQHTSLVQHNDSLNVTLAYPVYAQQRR

[9] = Clinical study in healthy adult subjects, safety
[10] = Sprague-Dawley, in vivo, IV, 2 mg/kg
[11] = Sprague-Dawley, in vivo, PO, 10 mg/kg
[12] = multiple doses for 2 weeks (n=36)

Structure (SMILES): C[C@H](Nc1ncnc2[nH]cnc12)c1cc2cccc(Cl)c2c(=O)n1-c1ccccc1 [Compound 292]
- locomotor activity (central nervous system; 2 h after a 350 mg/kg oral dose): Significant decreases
- effects on the central nervous system (central nervous system; dose levels≦50 mg/kg): No effects
- qualitative or quantitative FOB parameters (central nervous system; single oral dose up to 350 mg/kg, up to 24 h post-dose): no changes
- clearance (Pharmacokinetics, monkey; monkey): low to moderate
- volume of distribution (Pharmacokinetics, monkey; monkey): high
- AUC0-last (Pharmacokinetics, monkey; monkey, IV, 1 mg/kg): 2357 ng·h/mL
- AUC(0-inf) (Pharmacokinetics, monkey; monkey, IV, 1 mg/kg): 2379 ng·h/mL
- Cl (Pharmacokinetics, monkey; monkey, IV, 1 mg/kg): 7.17 mL/min/kg
- Cmax (Pharmacokinetics, monkey; monkey, IV, 1 mg/kg): 1545 ng/mL
- T1/2 (Pharmacokinetics, monkey; monkey, IV, 1 mg/kg): 5.0 h
- Tmax (Pharmacokinetics, monkey; monkey, IV, 1 mg/kg): 0.083 h
- Vss (Pharmacokinetics, monkey; monkey, IV, 1 mg/kg): 1.27 L/kg
- AUC0-last (Pharmacokinetics, monkey; monkey, PO, 5 mg/kg): 4596 ng·h/mL
- AUC(0-inf) (Pharmacokinetics, monkey; monkey, PO, 5 mg/kg): 4685 ng·h/mL
- Cmax (Pharmacokinetics, monkey; monkey, PO, 5 mg/kg): 1327 ng/mL
- Foral (Pharmacokinetics, monkey; monkey, PO, 5 mg/kg): 40%
- T1/2 (Pharmacokinetics, monkey; monkey, PO, 5 mg/kg): 5.4 h
- Tmax (Pharmacokinetics, monkey; monkey, PO, 5 mg/kg): 1.5 h
- half-life (Pharmacokinetics, monkey; monkeys): 5 h
- onset of clinical activity (hematologic malignancies; CLL/SLL): Rapid onset
- responses in evaluable patients (hematologic malignancies; CLL/SLL, 8, 15, and 25 mg BID dose levels): ⅔
- Best Observed Response CR (hematologic malignancies; CLL/SLL, 11 evaluable): 0 n
- Best Observed Response PR (hematologic malignancies; CLL/SLL, 11 evaluable): 6 n
- Best Observed Response SD (hematologic malignancies; CLL/SLL, 11 evaluable, four nodal responses): 4^c n
- Best Observed Response PR (hematologic malignancies; HL, 2 evaluable): 0 n
- Best Observed Response SD (hematologic malignancies; HL, 2 evaluable): 0 n
- Best Observed Response CR (hematologic malignancies; MCL, 3 evaluable): 0 n
- Best Observed Response PR (hematologic malignancies; MCL, 3 evaluable): 2 n
- Best Observed Response SD (hematologic malignancies; MCL, 3 evaluable): 0 n
- responses in evaluable patients (hematologic malignancies; MCL, 8, 15, and 25 mg BID dose levels): 1/1
- Best Observed Response CR (hematologic malignancies; MM, 3 evaluable): 0 n
- Best Observed Response PD (hematologic malignancies; MM, 3 evaluable): 2 n
- Best Observed Response PR (hematologic malignancies; MM, 3 evaluable): 0 n
- Best Observed Response PD (hematologic malignancies; T-Cell Lymphoma, 6 evaluable): 3 n
- doses at which responses were observed (hematologic malignancies; T-cell lymphoma and Hodgkin lymphoma): ≥ 50 mg BID
- Best Observed Response CR (hematologic malignancies; aNHL, 3 evaluable): 0 n
- Best Observed Response PD (hematologic malignancies; aNHL, 3 evaluable): 2 n
- Best Observed Response PR (hematologic malignancies; aNHL, 3 evaluable): 0 n
- tumor mass (hematologic malignancies; all indications and all dose levels evaluated): Reduction in tumor mass
- responses in evaluable patients (hematologic malignancies; iNHL, 8, 15, and 25 mg BID dose levels): ½
- Best Observed Response PR (hematologic malignancies; iNHL, 13 evaluable): 7 n
- Best Observed Response SD (hematologic malignancies; iNHL, 13 evaluable): 4 n
- doses at which responses were observed (hematologic malignancies; iNHL, CLL/SLL, and MCL): ≤ 50 mg BID
- pulmonary metastases by PET/CT (hematologic malignancies; patient, enteropathy-associated T-cell lymphoma, 2 cycles, 60 mg BID): complete resolution
- NOAEL ([1]; 13-week rat study, oral gavage): 150 mg/m^2/day
- NOAEL at 13 weeks ([1]; both, rat, in vivo, po): 25 mg/kg/day
- mean AUC0-24 hr at the NOAEL ([1]; rat, Day 91, combined sexes): 14150 ng·h/mL
- protein bound [2]: 76.8%
- dose limiting toxicity ([3]; 15 mg BID dose cohort): Grade 4 neutropenia
- AE Leading to Discontinuation ([3]; 25 mg BID (n = 34)): 2 n
- Any AE ([3]; 25 mg BID (n = 34)): 27 n
- Any AE Grade 3 ([3]; 25 mg BID (n = 34)): 7 n
- Any AE Grade 4 ([3]; 25 mg BID (n = 34)): 5 n
- Deaths on Study ([3]; 25 mg BID (n = 34)): 0 n
- Dose Reduced (New Grade 3/4 ALT) ([3]; 25 mg BID (n = 34)): 3 n
- Dose Reduced (New Grade 3/4 ANC) ([3]; 25 mg BID (n = 34)): 2 n
- New Grade 3 ALT ([3]; 25 mg BID (n = 34)): 3 n
- New Grade 3 ANC ([3]; 25 mg BID (n = 34)): 2 n
- New Grade 4 ANC ([3]; 25 mg BID (n = 34)): 4 n
- Related AE ([3]; 25 mg BID (n = 34)): 18 n
- Related Grade 3 AE ([3]; 25 mg BID (n = 34)): 4/4 n
- Related Grade 4 AE ([3]; 25 mg BID (n = 34)): 4/4 n
- SAE ([3]; 25 mg BID (n = 34)): 4 n
- dose limiting toxicity ([3]; 75 mg BID): Grade 3 cellulitis
- new Grade>3 neutropenia, n (%) ([3]; 20 patients, 8-50 mg BID): 6 (30%)
- new Grade>3 thrombocytopenia, n (%) ([3]; 20 patients, 8-50 mg BID): 1 (5%)
- patients with AEs Grade>3 ([3]; 20 patients, 8-50 mg BID): 7 (35%)
- patients with adverse events ([3]; 20 patients, 8-50 mg BID): 13 (65%)
- patients with treatment-related AEs ([3]; 20 patients, 8-50 mg BID): 11 patients
- patients with treatment-related AEs Grade>3 ([3]; 20 patients, 8-50 mg BID): 5 patients
- Grade 3 ALT/AST elevations, n (%) ([3]; 20 patients, 8-50 mg BID, MM patient): 1 (5%)
- AE Leading to Discontinuation ([3]; Safety Population (n = 55)): 3 n
- Any AE ([3]; Safety Population (n = 55)): 46 n
- Any AE Grade 3 ([3]; Safety Population (n = 55)): 18 n
- Any AE Grade 4 ([3]; Safety Population (n = 55)): 8 n
- Deaths on Study ([3]; Safety Population (n = 55)): 3 n
- Dose Reduced (New Grade 3/4 ALT) ([3]; Safety Population (n = 55)): 6 n
- Dose Reduced (New Grade 3/4 ANC) ([3]; Safety Population (n = 55)): 5 n
- New Grade 3 ALT ([3]; Safety Population (n = 55)): 5 n
- New Grade 3 ANC ([3]; Safety Population (n = 55)): 10 n
- New Grade 4 ANC ([3]; Safety Population (n = 55)): 5 n
- Related AE ([3]; Safety Population (n = 55)): 31 n
- Related Grade 3 AE ([3]; Safety Population (n = 55)): 14 n
- Related Grade 4 AE ([3]; Safety Population (n = 55)): 6 n
- SAE ([3]; Safety Population (n = 55)): 11 n
- MTD ([3]; after dose escalation to 75 mg BID): not yet reached
- tolerability ([3]; patients with advanced hematologic malignancies): well tolerated; also recorded: well-tolerated
- clearance (Pharmacokinetics, rat): low to moderate
- half-life (Pharmacokinetics, rat): less than 2 hrs
- volume of distribution (Pharmacokinetics, rat): high
- Foral (Pharmacokinetics, rat; PO, 10 mg/kg): 57%
- AUC(0-inf) (Pharmacokinetics, rat; [10]): 1160 ng·h/mL
- AUC(0-t) (Pharmacokinetics, rat; [10]): 1150 ng·h/mL
- Cmax (Pharmacokinetics, rat; [10]): 1520 ng/mL
- Tmax (Pharmacokinetics, rat; [10]): 0.083 h
- clearance (Pharmacokinetics, rat; Sprague-Dawley, in vivo, IV, 2 mg/kg, read-out: Cl (converted)): 30.5 mL/min/kg
- half-life (Pharmacokinetics, rat; Sprague-Dawley, in vivo, IV, 2 mg/kg, read-out: T1/2 (converted)): 0.73 h
- Vd (Pharmacokinetics, rat; Sprague-Dawley, in vivo, IV, 2 mg/kg, read-out: Vss): 1.66 L/kg
- AUC(0-inf) (Pharmacokinetics, rat; [11]): 3300 ng·h/mL
- AUC(0-t) (Pharmacokinetics, rat; [11]): 2930 ng·h/mL
- Cmax (Pharmacokinetics, rat; [11]): 785 ng/mL
- Tmax (Pharmacokinetics, rat; [11]): 1.2 h
- half-life (Pharmacokinetics, rat; Sprague-Dawley, in vivo, PO, 10 mg/kg, read-out: T1/2 (converted)): 2.4 h
- rat micronucleus assay [4]: no direct adverse effect
- NOAEL ([5]; 13-week monkey study, oral gavage): 60 mg/m^2/day
- NOAEL at 13 weeks ([5]; both, cynomolgus monkey, in vivo, po): 5 mg/kg/day
- mean AUC0-24 hr at the NOAEL ([5]; monkey, Day 91, combined sexes): 4015 ng·h/mL
- radioactivity in tissues at 24 hr [6]: without quantifiable levels of radioactivity
- P-gp substrate (human P-glycoprotein): is a P-gp substrate
- inhibition of P-gp transport (human P-glycoprotein): has the potential to inhibit the active transport of other P-gp substrates
- respiratory parameters (respiratory rate, tidal volume, minute volume) (respiratory system): no Compound 292-related effects
- hemodynamic or electrocardiographic parameters ([7]; single oral dose of 5, 30, and 150 mg/kg): No Compound 292-related effects
- waveform abnormalities or arrhythmias ([7]; up to 150 mg/kg oral): no waveform abnormalities or arrhythmias
- protein bound [8]: 85.8%
- basophil activation (CD63 expression on CCR3+ basophils) (PI3K δ; all single and multiple dose levels): dose-dependent reduction; also recorded: reduced in a dose-dependent manner
- dose at which maximal PD response was achieved (PI3K δ; single dose): 5 mg
- IgE ([9]; healthy subjects): No increases
- deaths and serious adverse events ([9]; healthy subjects): no deaths and no serious adverse events
- safety laboratory or ECG abnormalities ([9]; healthy subjects): No clinically significant safety laboratory or electrocardiogram (ECG) abnormalities
- QTcF greater than 500 msec ([9]; healthy subjects, serial ECGs): No subject
- largest change from baseline in QTcF ([9]; healthy subjects, serial ECGs): 37 ms
- tolerability ([9]; healthy subjects, single doses up to 30 mg, up to 10 mg daily for 14 days): well tolerated; also recorded: well-tolerated
- headache [9, 12]: 8%
- myalgia [9, 12]: 6%
- nasopharyngitis [9, 12]: 6%
